Patent publication US20170096426A1 (published 2017)

CCCCCn1c2ccccc2c2cc(C(=O)c3ccccc3)ccc21
melting point: 116 to 117 °C
